Assays:
[1] = Coating stability assay: coated substrates incubated overnight in PBS at 36° C.; assay type: physicochemical
Protocol: Coating Compositions and Stability Assays. A macrocyclic compound (1 mg/mL) was dissolved in DMSO. To this solution was added to 10 mM to 1.5 M salts in aqueous buffer (pH 4-10). Various substrates were coated by dipping the substrates in the coating mixture (e.g., see FIGS. 12-16) and the stability of the coating compositions were tested by incubating the coated substrates in PBS at 36° C. overnight (e.g., see FIG. 7-16). […] For example, 1 mg/mL of the arene were dissolved in DMSO (10 volume % of the total coating solution). To this solution the buffered aqueous solution containing the salt of choice and the buffer (90% of total coating solution) was added. Then the pH was adjusted using HCl or NaOH solutions. The solution was transferred to a glass vial and the different substrates where added. The vial was sealed and placed on a rocking platform for 24 h. The substrate was rinsed with DI H2O then dried with a N2 flow. Buffers used included Na2CO3 (pH 11), bicine (ph 8-9), bis-tris (pH 6-7), tris (pH 7), sodium acetate (pH 4-5). The Buffer concentration used were between 0.1 and 2.2 M. Salt concentration used were between 0 and 1.5 M.

[2] = Sessile Contact Angle / wettability of coated PDMS; assay type: physicochemical
Protocol: Sessile Contact Angle: 2 μL drops were placed on planar samples prepared as in the previous section. Contact angles were measured using Ramé-Hart Droplmage analysis software and hardware setup.

Structure (SMILES) | optimal pH for coating stability ([1]; 0.2M MgCl2 in Bicine buffer) | optimal salt concentration for coating stability ([1]; CaCl2 in Gly buffer) [M] | optimal salt concentration for coating stability ([1]; MgCl2, pH 8.5, Bicine buffer) [M] | optimal pH for coating stability ([1]; pH screen, MgCl2 salt) | wettability of PDMS [2]
Oc1ccc(C2c3cc(c(O)cc3O)C(c3ccc(O)c(O)c3)c3cc(c(O)cc3O)C(c3ccc(O)c(O)c3)c3cc(c(O)cc3O)C(c3ccc(O)c(O)c3)c3cc2c(O)cc3O)cc1O [D-D macrocycle] | 8.5 | 0.5 | 0.5 | 8.0 | –
Oc1cccc(O)c1O [pyrogallol] | – | – | – | – | increase the wettability of PDMS

— patent US10995225B2, “Macrocyclic polyphenols for universal coatings” (The Regents of the University of California, priority 2016, dated 2021)
